# Test results: PubChem BioAssay (NCI)
#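 Compound exposure: 48 hours, 5 concentrations, 96-well plates. The concentration for 50% growth inhibition is given as GI50. TGI denotes the concentration required for complete inhibition of growth.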
# What was measured:
# Assay in all cases: DTP human tumour cell line panel, 48 h
# SK-MEL-2 melanoma = test system: SK-MEL-2 melanoma
# PC-3 prostate = test system: PC-3 prostate
# CAKI-1 renal = test system: CAKI-1 renal
# RXF 393 renal = test system: RXF 393 renal
# SN12C renal = test system: SN12C renal
# SF-268 CNS = test system: SF-268 CNS
# RPMI-8226 leukemia = test system: RPMI-8226 leukemia
# K-562 leukemia = test system: K-562 leukemia
# ACHN renal = test system: ACHN renal
# SF-295 CNS = test system: SF-295 CNS
SMILES,TGI (SK-MEL-2 melanoma),TGI (PC-3 prostate),TGI (CAKI-1 renal),TGI (RXF 393 renal),TGI (SN12C renal),TGI (SF-268 CNS),TGI (RPMI-8226 leukemia),TGI (K-562 leukemia),TGI (ACHN renal),TGI (SF-295 CNS),GI50 (SK-MEL-2 melanoma),GI50 (PC-3 prostate),GI50 (CAKI-1 renal),GI50 (RXF 393 renal),GI50 (SN12C renal),GI50 (SF-268 CNS),GI50 (RPMI-8226 leukemia),GI50 (K-562 leukemia),GI50 (ACHN renal),GI50 (SF-295 CNS)
NC(N)=NS(=O)(=O)c1ccc(N=Nc2c(O)c(C(=O)O)cc3ccccc23)cc1,> 100 µM,> 100 µM,> 100 µM,> 100 µM,> 100 µM,> 100 µM,> 100 µM,> 100 µM,> 100 µM,> 100 µM,–,–,–,–,–,–,–,–,–,–
COc1cc(-c2nn(-c3cccc(NC(=O)c4ccccc4)c3)cc2-c2ccncc2)ccc1Cl,2.1 µM,> 33.5 µM,> 40.5 µM,> 25.2 µM,> 100 µM,> 54.8 µM,> 100 µM,> 100 µM,> 100 µM,1.44 µM,0.326 µM,0.333 µM,0.836 µM,0.545 µM,1.45 µM,0.596 µM,0.457 µM,0.39 µM,0.72 µM,0.315 µM
NC(=S)N/N=C\c1nccc2c(C(F)(F)F)cccc12,8.34 µM,15.2 µM,8.73 µM,2.53 µM,12.4 µM,21.6 µM,14.9 µM,21.2 µM,5.58 µM,10.3 µM,0.461 µM,0.351 µM,0.312 µM,0.251 µM,0.31 µM,0.27 µM,0.376 µM,0.44 µM,0.226 µM,0.341 µM
CN(C)c1ccc(/C=N/NC(=S)Nc2ccccc2)cc1,> 100 µM,> 100 µM,> 100 µM,> 100 µM,> 100 µM,> 100 µM,> 100 µM,> 100 µM,> 100 µM,> 100 µM,–,–,–,–,–,–,–,–,–,–
C=C(C)C(=O)O[C@@H]1C[C@@]2(C)O[C@@H]2C[C@H](O)/C(C)=C/[C@H]2OC(=O)C(=C)[C@@H]21,> 100 µM,> 100 µM,67.4 µM,> 100 µM,> 100 µM,> 100 µM,> 100 µM,> 100 µM,> 100 µM,> 100 µM,–,–,–,–,–,–,–,–,–,–
CC(=O)OCc1ccc2c(c1)C(O)NC(=O)O2 (stereo unspecified),> 100 µM,> 100 µM,> 100 µM,> 100 µM,> 100 µM,> 100 µM,73.6 µM,> 100 µM,> 100 µM,> 100 µM,–,–,–,–,–,–,–,–,–,–
COc1ccc2ncnc(Nc3ccc(OCc4ccccc4)cc3)c2c1,> 25 µM,> 25 µM,> 17.2 µM,10.2 µM,> 25 µM,> 25 µM,> 25 µM,> 25 µM,> 25 µM,> 18.7 µM,9.97 µM,8.54 µM,3.85 µM,4.59 µM,9.14 µM,13.9 µM,7.58 µM,9.01 µM,5.88 µM,5.15 µM
CC(=C(c1ccc(OCCN2CCCCC2)cc1)c1ccc(OCCN2CCCCC2)cc1)c1ccc(Cl)cc1,0.909 µM,0.825 µM,0.74 µM,0.743 µM,0.785 µM,0.873 µM,1.19 µM,0.362 µM,0.779 µM,0.868 µM,0.459 µM,0.412 µM,0.397 µM,0.375 µM,0.414 µM,0.436 µM,0.53 µM,0.0775 µM,0.434 µM,0.449 µM
COc1cc2c(cc1OC)-c1cc(OC)c(OC)cc1C(CN(C)C)C2 (stereo unspecified),> 10 µM,> 10 µM,> 10 µM,> 10 µM,> 10 µM,> 10 µM,> 10 µM,> 10 µM,> 10 µM,> 10 µM,> 10 µM,> 10 µM,> 10 µM,> 10 µM,> 10 µM,> 10 µM,> 10 µM,> 10 µM,> 10 µM,> 10 µM
COc1ccc(CN2C(=O)C(Cl)=C(Nc3cccc(C(F)(F)F)c3)C2=O)cc1,27.3 µM,37.3 µM,24.4 µM,6.01 µM,30.8 µM,16.6 µM,23.2 µM,51.5 µM,20.5 µM,65.3 µM,12.3 µM,4.61 µM,5.16 µM,0.0458 µM,12.4 µM,3.67 µM,2.38 µM,3.26 µM,6.71 µM,3.19 µM
CCNC(=O)C#Cc1ccc2c(C(=Nc3ccc(CN(C)C)cc3)c3ccccc3)c(O)[nH]c2c1,0.228 µM,> 4.79 µM,> 9.05 µM,0.703 µM,1.59 µM,> 9.48 µM,3.19 µM,3.92 µM,2.58 µM,3.31 µM,0.0323 µM,0.238 µM,0.119 µM,0.123 µM,0.0671 µM,1.35 µM,0.434 µM,0.344 µM,0.265 µM,0.249 µM
Cc1cc(Nc2ccc(C)c(Cl)c2)n2nc(C(F)(F)F)nc2n1,55.4 µM,> 100 µM,34.7 µM,82.4 µM,52.9 µM,> 100 µM,39 µM,> 100 µM,35.9 µM,74 µM,22.9 µM,22 µM,14.6 µM,19.4 µM,18.8 µM,28.3 µM,14 µM,16 µM,16.3 µM,21.2 µM
Nc1nc2[nH]cc(CCc3ccc(C(=O)N[C@@H](CCC(=O)O)C(=O)O)cc3)c2c(=O)[nH]1,> 100 µM,> 100 µM,> 100 µM,> 100 µM,> 100 µM,> 100 µM,> 100 µM,> 100 µM,> 100 µM,> 100 µM,–,> 51.9 µM,0.0845 µM,–,0.737 µM,0.219 µM,> 65.9 µM,–,0.129 µM,0.606 µM
C=C1C[C@H](O)[C@H](Br)C(C)(C)[C@@]12CCC(C)=C(Cl)C2,2.61 µM,1.87 µM,13.2 µM,4.12 µM,6.61 µM,6.25 µM,1.25 µM,10.4 µM,10.7 µM,1.69 µM,0.422 µM,0.0573 µM,0.133 µM,0.35 µM,0.416 µM,0.396 µM,0.229 µM,0.443 µM,0.369 µM,0.105 µM
Cc1ccc(-c2nc(N3CCNCC3)c3oc(-c4ccc(C)cc4)nc3n2)cc1,> 60.9 µM,3.43 µM,> 45.6 µM,8.81 µM,3.61 µM,5.61 µM,5.28 µM,4.51 µM,4.78 µM,52.6 µM,> 41.6 µM,1.77 µM,24.1 µM,3.89 µM,1.88 µM,2.25 µM,2.48 µM,1.81 µM,2.23 µM,12.1 µM
OC(c1cc(C(F)(F)F)nc2c(C(F)(F)F)cccc12)C1CCCCN1 (stereo unspecified),4.16 µM,5.88 µM,4.67 µM,4.53 µM,3.71 µM,13.1 µM,11.5 µM,6.47 µM,7.05 µM,5.09 µM,2.31 µM,2.17 µM,1.78 µM,1.71 µM,1.78 µM,3.57 µM,3.22 µM,3.12 µM,2.69 µM,2.04 µM
CC(=O)Nc1cc2ccc(=O)oc2cc1Cl,> 100 µM,> 100 µM,> 100 µM,> 100 µM,> 100 µM,> 100 µM,> 100 µM,> 100 µM,> 100 µM,> 100 µM,–,–,–,–,–,–,–,–,–,–
CN1CCN(c2ccc(Nc3ncc(Cl)c(NC[C@@H]4CCCO4)n3)cc2)CC1,7.94 µM,> 100 µM,> 100 µM,3.42 µM,> 100 µM,12.9 µM,5.63 µM,> 100 µM,> 100 µM,26.3 µM,2.59 µM,2.24 µM,2.07 µM,0.746 µM,1.13 µM,1.55 µM,1.48 µM,2.94 µM,0.973 µM,1.26 µM
O=C1c2c(F)c(F)c(F)c(F)c2C(=O)N1c1ccc(F)cc1F,> 100 µM,27.2 µM,25.5 µM,> 46.7 µM,10.1 µM,27.8 µM,65.4 µM,> 33.9 µM,23 µM,46.4 µM,34.4 µM,6.21 µM,8.44 µM,7.68 µM,2.95 µM,10.1 µM,3.81 µM,2.58 µM,10.1 µM,13.7 µM
CC(C)[C@@H]1NC(=O)[C@]2(C)CSC(=N2)c2ccnc(c2)CNC(=O)C[C@@H](/C=C/CCS)OC1=O,0.516 µM,> 100 µM,15.6 µM,0.562 µM,> 100 µM,> 100 µM,> 27.7 µM,> 100 µM,14.9 µM,0.322 µM,0.0842 µM,0.0669 µM,2.86 µM,0.0828 µM,0.711 µM,0.421 µM,1.49 µM,0.637 µM,2.46 µM,0.0623 µM
COC(=O)[C@]12CC[C@@H](C)[C@H](C)[C@@H]1C1=CC[C@@H]3[C@@]4(C)C[C@@H](O)[C@H](O)[C@@](C)(CO)[C@@H]4[C@H](O)C[C@@]3(C)[C@]1(C)CC2,48.3 µM,15.6 µM,27.3 µM,23.1 µM,30.6 µM,27.5 µM,31.3 µM,45.7 µM,21.6 µM,35.4 µM,22.6 µM,3.63 µM,13.1 µM,9.32 µM,14.5 µM,12.6 µM,5.18 µM,12.7 µM,7.8 µM,15 µM
C/C=C/[C@@H]1O[C@@H]2COC(=O)C2=C[C@@H]1O,> 79.7 µM,36.6 µM,5.03 µM,39.7 µM,31.4 µM,63.9 µM,7.18 µM,–,13.4 µM,> 56.4 µM,33.1 µM,18.7 µM,2.14 µM,15 µM,15.4 µM,24.2 µM,2.55 µM,2.53 µM,3.58 µM,29.9 µM
O=C1CSC(=S)N1/N=C/c1ccc(Cl)c([N+](=O)[O-])c1,92.7 µM,65.6 µM,> 100 µM,> 100 µM,56.3 µM,40.2 µM,> 100 µM,> 100 µM,45.6 µM,68.5 µM,–,–,–,–,–,–,–,–,–,–
O=C1OCC2=C1C(c1cccc(Br)c1)c1cc3c(cc1N2CCO)OCCO3 (stereo unspecified),1.29 µM,8.74 µM,7.54 µM,0.0361 µM,> 27.1 µM,8.38 µM,14 µM,> 27.7 µM,> 34 µM,0.417 µM,0.0426 µM,0.0546 µM,0.0522 µM,0.012 µM,0.188 µM,0.0766 µM,0.0714 µM,0.055 µM,0.103 µM,0.0184 µM
c1ccc(-c2n(Cc3ccc4ccccc4n3)cc[n+]2Cc2ccc3ccccc3c2)cc1,3.12 µM,5.51 µM,3.54 µM,3.38 µM,4.36 µM,5.5 µM,1.52 µM,4.36 µM,11.4 µM,4.73 µM,1.2 µM,1.31 µM,1.59 µM,1.34 µM,1.44 µM,1.91 µM,0.288 µM,0.427 µM,3.35 µM,1.73 µM
CCOc1ccc(NC2=CC(=O)C(=O)c3ccccc32)cc1,16.2 µM,19.8 µM,20.9 µM,14.6 µM,3.31 µM,22.4 µM,26.2 µM,26.9 µM,5.74 µM,5.4 µM,–,–,–,–,–,–,–,–,–,–
CC(=O)OC1(C)N=NC2(CCCCC2)O1 (stereo unspecified),> 100 µM,> 100 µM,> 100 µM,> 100 µM,> 100 µM,> 100 µM,> 100 µM,> 100 µM,> 100 µM,> 100 µM,–,–,–,–,–,–,–,–,–,–
CCOC(=O)n1cc(C2=C(c3ccc(OC)c(OC)c3)COC2=O)c2ccccc21,> 100 µM,> 100 µM,37.1 µM,> 100 µM,> 100 µM,> 100 µM,1.65 µM,> 100 µM,> 73.1 µM,> 100 µM,0.402 µM,0.0404 µM,0.0465 µM,0.0252 µM,0.0681 µM,0.262 µM,0.0327 µM,0.0325 µM,0.0615 µM,0.0388 µM
